# Test results taken from ChEMBL document CHEMBL1201862, “PubChem BioAssay data set” (2004).
# Activity calls are given as the source filed them.
# How the values were obtained:
# Assay type in all cases: functional
# [1] = biological target: Melanin-concentrating hormone receptor 1 (Homo sapiens, UniProt Q99705); assay: Late-stage fluorescence-based counterscreen for antagonists of the G-protein coupled receptor 7 (GPR7): cell-based dose response assay to identify antagonists of the melanin-concentrating hormone receptor 1 (MCHR1) Set 6.
# [2] = biological target: Neuropeptides B/W receptor type 1 (Homo sapiens, UniProt P48145); assay: GPR7 antagonist potency, late-stage follow-up, cell-based, fluorescence, dose response, set 6 (AID 588583)
# [3] = biological target: MAP kinase-activated protein kinase 2 (Homo sapiens, UniProt P49137);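 further: measured as one member of a kinome-wide kinase panel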
# [4] = biological target: Glycogen synthase kinase-3 alpha (Homo sapiens, UniProt P49840);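 further: GSK3A result taken from a broad kinome-wide kinase panel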
# [5] = biological target: Serine/threonine-protein kinase PLK1 (Homo sapiens, UniProt P53350);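 further: PLK1 measured as one member of a kinome-wide profiling panel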
# [6] = biological target: Cyclin-dependent kinase 1 (Homo sapiens, UniProt P06493);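 further: Kinome-wide panel profiling, with the target listed as panel member CDC2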
# Aurora kinase B = Aurora kinase B (Homo sapiens, UniProt Q96GD4)
# [7] = biological target: Serine/threonine-protein kinase pim-1 (Homo sapiens, UniProt P11309)
# Serine/threonine-protein kinase pim-1, sequence (P11309 whole entry): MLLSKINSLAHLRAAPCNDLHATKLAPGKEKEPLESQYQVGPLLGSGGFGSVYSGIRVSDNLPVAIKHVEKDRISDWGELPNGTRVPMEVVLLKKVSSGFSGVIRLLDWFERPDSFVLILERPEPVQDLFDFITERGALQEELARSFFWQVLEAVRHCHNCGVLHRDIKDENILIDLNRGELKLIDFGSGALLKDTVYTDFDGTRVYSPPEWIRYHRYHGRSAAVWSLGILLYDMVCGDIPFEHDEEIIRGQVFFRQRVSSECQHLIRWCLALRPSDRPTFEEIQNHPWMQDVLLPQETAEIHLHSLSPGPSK
# MAP kinase-activated protein kinase 2, sequence (P49137 whole entry): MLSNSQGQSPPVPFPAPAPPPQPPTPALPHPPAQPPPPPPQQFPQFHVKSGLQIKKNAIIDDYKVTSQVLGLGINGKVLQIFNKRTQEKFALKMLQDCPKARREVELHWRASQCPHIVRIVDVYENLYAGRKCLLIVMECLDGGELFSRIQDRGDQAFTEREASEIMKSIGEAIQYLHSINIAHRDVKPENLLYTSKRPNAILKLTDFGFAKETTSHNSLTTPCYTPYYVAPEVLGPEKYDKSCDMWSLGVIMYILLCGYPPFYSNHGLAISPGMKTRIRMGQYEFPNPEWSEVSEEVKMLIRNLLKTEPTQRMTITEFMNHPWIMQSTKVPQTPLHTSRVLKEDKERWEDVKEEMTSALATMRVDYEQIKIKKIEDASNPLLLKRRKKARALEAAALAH
# Glycogen synthase kinase-3 alpha, sequence (P49840 whole entry): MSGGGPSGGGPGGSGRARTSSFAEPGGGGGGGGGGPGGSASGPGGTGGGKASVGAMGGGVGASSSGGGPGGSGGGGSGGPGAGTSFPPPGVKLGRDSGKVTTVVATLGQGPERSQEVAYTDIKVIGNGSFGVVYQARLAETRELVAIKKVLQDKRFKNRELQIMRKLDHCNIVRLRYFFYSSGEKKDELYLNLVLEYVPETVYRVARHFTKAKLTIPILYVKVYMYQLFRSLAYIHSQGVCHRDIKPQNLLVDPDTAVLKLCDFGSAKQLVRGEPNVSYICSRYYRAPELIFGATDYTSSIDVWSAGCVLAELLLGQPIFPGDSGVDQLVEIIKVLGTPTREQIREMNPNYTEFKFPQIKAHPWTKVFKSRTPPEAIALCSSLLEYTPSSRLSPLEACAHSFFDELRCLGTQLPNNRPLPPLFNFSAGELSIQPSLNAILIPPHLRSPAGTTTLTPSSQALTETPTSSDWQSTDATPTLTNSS
# Aurora kinase B, sequence (Q96GD4 whole entry): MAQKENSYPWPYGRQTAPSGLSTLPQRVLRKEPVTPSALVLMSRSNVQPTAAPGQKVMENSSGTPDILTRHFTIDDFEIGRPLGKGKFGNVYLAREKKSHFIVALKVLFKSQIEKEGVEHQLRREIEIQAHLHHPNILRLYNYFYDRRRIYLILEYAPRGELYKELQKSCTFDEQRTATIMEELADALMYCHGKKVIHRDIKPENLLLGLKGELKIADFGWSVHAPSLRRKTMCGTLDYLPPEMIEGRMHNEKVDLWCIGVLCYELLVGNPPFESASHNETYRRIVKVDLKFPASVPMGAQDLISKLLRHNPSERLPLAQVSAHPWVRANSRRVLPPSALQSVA
# Serine/threonine-protein kinase PLK1, sequence (P53350 whole entry): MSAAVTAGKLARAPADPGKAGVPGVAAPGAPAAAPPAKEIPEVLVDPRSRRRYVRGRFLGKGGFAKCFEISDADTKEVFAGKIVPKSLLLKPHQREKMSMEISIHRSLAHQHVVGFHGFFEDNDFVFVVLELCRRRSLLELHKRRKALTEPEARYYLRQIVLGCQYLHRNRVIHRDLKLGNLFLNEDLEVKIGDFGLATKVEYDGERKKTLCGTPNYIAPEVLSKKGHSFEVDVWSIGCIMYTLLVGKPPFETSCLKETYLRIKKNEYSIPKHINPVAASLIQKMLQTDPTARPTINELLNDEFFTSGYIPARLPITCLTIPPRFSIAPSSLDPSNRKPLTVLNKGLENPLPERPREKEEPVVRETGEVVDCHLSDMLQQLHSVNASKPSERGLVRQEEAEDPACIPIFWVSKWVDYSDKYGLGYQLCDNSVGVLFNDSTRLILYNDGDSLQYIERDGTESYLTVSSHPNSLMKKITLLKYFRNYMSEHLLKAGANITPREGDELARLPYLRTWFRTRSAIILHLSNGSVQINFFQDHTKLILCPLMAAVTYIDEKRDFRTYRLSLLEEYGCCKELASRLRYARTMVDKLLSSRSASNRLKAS
# Cyclin-dependent kinase 1, sequence (P06493 whole entry): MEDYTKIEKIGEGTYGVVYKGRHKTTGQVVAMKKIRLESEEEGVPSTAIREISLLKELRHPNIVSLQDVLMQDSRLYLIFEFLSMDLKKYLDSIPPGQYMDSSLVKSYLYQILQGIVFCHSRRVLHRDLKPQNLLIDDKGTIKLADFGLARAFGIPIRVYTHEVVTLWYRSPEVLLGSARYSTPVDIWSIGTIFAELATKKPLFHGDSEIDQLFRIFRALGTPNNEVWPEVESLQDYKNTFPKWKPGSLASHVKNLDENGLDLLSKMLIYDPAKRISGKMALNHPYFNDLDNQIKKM
# Neuropeptides B/W receptor type 1, sequence (P48145 whole entry): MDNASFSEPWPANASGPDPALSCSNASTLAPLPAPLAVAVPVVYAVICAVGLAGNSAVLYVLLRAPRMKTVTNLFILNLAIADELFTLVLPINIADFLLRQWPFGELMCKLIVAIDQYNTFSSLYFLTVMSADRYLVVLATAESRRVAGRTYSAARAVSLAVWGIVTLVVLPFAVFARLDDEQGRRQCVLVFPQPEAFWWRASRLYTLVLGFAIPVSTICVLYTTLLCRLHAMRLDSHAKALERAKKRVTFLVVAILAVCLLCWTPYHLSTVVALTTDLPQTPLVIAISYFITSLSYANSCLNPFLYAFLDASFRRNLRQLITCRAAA
# Melanin-concentrating hormone receptor 1, sequence (Q99705 whole entry): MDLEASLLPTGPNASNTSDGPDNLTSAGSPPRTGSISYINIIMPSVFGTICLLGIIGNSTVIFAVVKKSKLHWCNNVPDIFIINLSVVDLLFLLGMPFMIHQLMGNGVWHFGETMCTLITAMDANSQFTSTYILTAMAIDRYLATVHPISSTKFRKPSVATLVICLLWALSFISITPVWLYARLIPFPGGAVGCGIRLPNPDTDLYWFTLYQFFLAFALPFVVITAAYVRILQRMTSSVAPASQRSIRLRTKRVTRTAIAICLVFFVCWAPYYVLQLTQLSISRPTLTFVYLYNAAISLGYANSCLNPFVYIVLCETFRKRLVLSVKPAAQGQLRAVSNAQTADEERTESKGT
IC50 [1],IC50 [2],Ki [3],Ki [4],Ki [5],Ki [6],Ki (Aurora kinase B),Ki [7],Structure (SMILES)
3.17 µM (active),3.17 µM (active),–,–,–,–,–,–,COc1ccc(Oc2c(Cl)cnn(CC(=O)N(c3ccccc3)C(C)C)c2=O)cc1
–,–,2.51 µM (active),7.94 µM (active),7.94 µM (active),2.51 µM (active),1.58 µM (active),5.01 µM (active),Cc1cccc(CNC(=O)c2cnn3c(-c4ccccc4)ccnc23)c1C
